Data as given in US4801614A, “Process for using endogenous enkephalins and endorphins to inhibit growth of tumerous cells” (TNI Pharmaceuticals, Inc., priority 1987, dated 1989).
Where two headings read alike, the source gives them in different places.

Tested on: L1210 tumor cells
Conditions: 30 mg/Kg s.c. methionine-enkephalin where combined
Text: Groups of BDF1 female mouse strain (16-20 gms) were inoculated with L1210 (leukemia) tumor cells (1×10^4, 1×10^3, or 1×10^2 cells) and observed for survival. The L1210 line of tumor cells was maintained in DBA/2 host mice. Ascitic fluid from the DBA/2 mice was used to inoculate the BDF1 mice transferred in RPMI 1640 buffer at pH 8-9).
In order to test for any synergistic effect of using an endogenous enkephalin with a known chemo-therapeutic agent, a study involving the inoculation of groups of mice with massive doses (1×10^6 ) of L1210 tumor cells was performed in a manner analogous to the previous examples transferred in RPMI 1640 at pH 7.

## N.N.[Cl][Pt][Cl] [Cis-platin, cis-platin]
2 mg/Kg cis-platin, day 9
  cumulative dead: 3/20
2 mg/Kg cis-platin, day 10
  cumulative dead: 13/20
2 mg/Kg cis-platin, day 11
  cumulative dead: 14/20
2 mg/Kg cis-platin, day 12
  cumulative dead: 15/20
2 mg/Kg cis-platin, day 13
  cumulative dead: 17/20
2 mg/Kg cis-platin, day 14
  cumulative dead: 19/20
2 mg/Kg cis-platin, saline control 9 Days
  Median Day of Death (ED50): 10 days
4 mg/Kg cis-platin, day 11
  cumulative dead: 10/20
4 mg/Kg cis-platin, day 12
  cumulative dead: 15/20
4 mg/Kg cis-platin, day 13
  cumulative dead: 19/20
4 mg/Kg cis-platin, day 15
  cumulative dead: 20/20
4 mg/Kg cis-platin, saline control 8 Days
  Median Day of Death (ED50): 10 days
8 mg/Kg cis-platin, saline control 8 days
  Median Day of Death (ED50): 12 days
Single dose 8 mg/Kg cis-platin, day 9
  cumulative dead: 2/20
Single dose 8 mg/Kg cis-platin, day 12
  cumulative dead: 4/20
Single dose 8 mg/Kg cis-platin, day 13
  cumulative dead: 7/20
Single dose 8 mg/Kg cis-platin, day 14
  cumulative dead: 12/20
Single dose 8 mg/Kg cis-platin, day 15
  cumulative dead: 16/20
Single dose 8 mg/Kg cis-platin, day 16
  cumulative dead: 18/20
Single dose 8 mg/Kg cis-platin, day 18
  cumulative dead: 19/20
Single dose 8 mg/Kg cis-platin, day 20
  cumulative dead: 20/20
